Data as given in publication PMC11142126 (bioRxiv, 2024).

Key:
[1] = molecular target: T1, PPM1D (Homo sapiens, UniProt O15297); assay: SPR; format: binding
T1 sequence (O15297 1-420): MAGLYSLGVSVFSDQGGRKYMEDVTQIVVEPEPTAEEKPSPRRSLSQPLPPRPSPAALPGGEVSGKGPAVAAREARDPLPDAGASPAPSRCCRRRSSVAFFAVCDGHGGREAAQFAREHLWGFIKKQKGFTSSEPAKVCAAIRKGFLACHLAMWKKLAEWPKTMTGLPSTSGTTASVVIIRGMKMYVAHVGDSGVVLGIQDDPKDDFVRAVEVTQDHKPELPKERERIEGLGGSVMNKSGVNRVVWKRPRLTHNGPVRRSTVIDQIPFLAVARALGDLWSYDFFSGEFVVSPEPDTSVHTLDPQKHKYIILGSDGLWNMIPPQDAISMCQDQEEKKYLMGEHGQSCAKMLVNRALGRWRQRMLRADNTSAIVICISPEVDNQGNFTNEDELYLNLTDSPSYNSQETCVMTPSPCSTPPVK

[2] = system: MOLM13 TP53 WT (MOLM13-tPPM1D); assay: cells; conditions: Homo sapiens, MOLM-13, read-out: 461 / 5.3 / 107
[3] = system: K562 p21-ffLuc reporter (wildtype TP53); assay: cells; conditions: Homo sapiens, K562, read-out: 461 / 5.3 / 107
[4] = system: PPM1D in MOLM13-tPPM1D cells; assay: cells; conditions: read-out: 461 / 5.3 / 107
[5] = molecular target: T1, PPM1D; assay: biochemical

Kd [1]: 0.008 µM
IC50 [2]: 0.394 µM
EC50 [3]: 0.221 µM
EC50 [4]: 0.383 µM
IC50 [5]: 0.02 µM
SMILES: Cc1ncc(Cl)cc1NCc1ccc(C(=O)N[C@@H](CC2CCCC2)C(=O)NC2CC2)s1 [GSK2830371]
